Key:
Format in all cases: biochemical
[1] = target: T1, O-acetylserine sulfhydrylase A (OASS-A, CysK) (Salmonella enterica, UniProt P0A1E3); test: ninhydrin cysteine activity assay; PLP absorbance ([…] to […] nm) and fluorescence changes
T1 construct: recombinant STOASS-A, His-tag removed with factor Xa

[2] = target: T2, O-acetylserine sulfhydrylase B (OASS-B, CysM) (Salmonella enterica, UniProt P29848); test: ninhydrin cysteine activity assay; PLP absorbance and fluorescence changes
T2 construct: recombinant STOASS-B, His-tag removed with factor Xa

[3] = target: T1, O-acetylserine sulfhydrylase A (OASS-A, CysK); test: ninhydrin cysteine activity assay; inactivation kinetics; PLP absorbance and fluorescence changes
[4] = target: T2, O-acetylserine sulfhydrylase B (OASS-B, CysM); test: as above

T1 sequence (P0A1E3 2-323): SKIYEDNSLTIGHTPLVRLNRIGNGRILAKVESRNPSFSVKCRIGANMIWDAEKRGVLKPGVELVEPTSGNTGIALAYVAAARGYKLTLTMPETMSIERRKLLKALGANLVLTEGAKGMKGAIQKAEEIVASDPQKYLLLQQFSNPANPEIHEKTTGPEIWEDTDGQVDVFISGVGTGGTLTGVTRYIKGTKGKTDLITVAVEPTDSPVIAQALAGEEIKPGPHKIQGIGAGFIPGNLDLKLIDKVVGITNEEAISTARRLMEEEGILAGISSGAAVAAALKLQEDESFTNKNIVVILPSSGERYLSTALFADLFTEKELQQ
T2 sequence (P29848 whole entry): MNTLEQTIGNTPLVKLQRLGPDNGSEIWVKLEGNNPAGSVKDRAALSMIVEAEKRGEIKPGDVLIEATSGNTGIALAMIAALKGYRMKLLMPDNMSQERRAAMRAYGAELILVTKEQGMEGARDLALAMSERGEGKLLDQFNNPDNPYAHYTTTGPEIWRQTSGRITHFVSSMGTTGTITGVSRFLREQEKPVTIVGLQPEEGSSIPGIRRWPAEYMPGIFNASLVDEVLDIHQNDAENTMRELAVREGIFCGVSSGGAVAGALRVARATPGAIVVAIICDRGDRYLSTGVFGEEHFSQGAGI

Structure (SMILES)	IC50 [1] [µM]	IC50 [2] [µM]	IC50 [3] [µM]	IC50 [4] [µM]
NC(CF)C(=O)O (stereo not shown) [F-Ala, monofluoroalanine]	480 ± 50	1290 ± 230	–	–
N[C@H](C(=O)O)C(F)(F)F [triF-Ala, β,β,β-trifluoroalanine]	–	–	130 ± 10	940 ± 60
